Measurements as given in paper PMC12846677 (Viruses, 2025).
Read-outs that look alike come from different tables or passages of the source.

Columns and labels:
HIV-1IIIB [1] = assay: Combined antiviral activity assay (p24 ELISA, CompuSyn); format: cell-based
HIV-1KIZ011 (CRF07_BC) = assay: microbe, parasite or virus in culture; conditions: Human immunodeficiency virus 1, PBMC
NL4-3 = assay: microbe, parasite or virus in culture; format: cell-based; conditions: Human immunodeficiency virus 1, NL43; NL4-3, p24
[2] = Cytotoxicity MTT assay in MT4 cells; format: cell-based; conditions: human
NL4-3IN-R263K = assay: microbe, parasite or virus in culture; format: cell-based; conditions: Human immunodeficiency virus 1
HIV-1WAN (CRF01_AE) = assay: microbe, parasite or virus in culture; conditions: Human immunodeficiency virus 1, PBMC
HIV-1_4755-5 = assay: microbe, parasite or virus in culture; conditions: Human immunodeficiency virus 1, C8166
HIV-1DRACC017 = assay: microbe, parasite or virus in culture; format: cell-based; conditions: for EC50: Human immunodeficiency virus 1, HIV-1DRACC017, p24
[3] = test system: pNL4-3gp41(36G) V38A, N42T; conditions: C8166, p24
[4] = Cytotoxicity MTT assay in PBMCs; format: cell-based; conditions: human, peripheral blood mononuclear cells (PBMCs), PBMC
HIV-1A17 = assay: microbe, parasite or virus in culture; conditions: Human immunodeficiency virus 1, C8166
[5] = Cytotoxicity MTT assay in C8166 cells; format: cell-based; conditions: human
HIV-1TC-1 (CRF01_AE) = assay: microbe, parasite or virus in culture; conditions: Human immunodeficiency virus 1, PBMC
HIV-1IIIB [6] = assay: microbe, parasite or virus in culture; conditions: Human immunodeficiency virus 1, C8166, HIV-1IIIB
HIV-1IIIB [7] = assay: HIV-1IIIB-induced cytopathic effect (syncytia counting) in C8166 cells; conditions: Human immunodeficiency virus 1, C8166
HIV-1IIIB [8] = assay: microbe, parasite or virus in culture; format: cell-based; conditions: Human immunodeficiency virus 1, MT4, MTT
HIV-1IIIB [9] = assay: qPCR determination of Late-RT, 2-LTR and Alu-LTR in infected C8166 cells; format: cell-based; conditions: for Late-RT level versus positive control (PC) group: C8166, HIV-1IIIB MOI 0.5, 100 nM ACC017, 4-8 h; for 2-LTR level (nuclear entry): C8166, HIV-1IIIB MOI 0.5, 100 nM ACC017, 8, 12, 24 h; for Alu-LTR level (integrated provirus): C8166, HIV-1IIIB MOI 0.5, 100 nM ACC017, 24 h, nested PCR
[10] = p24 (Table 4, resistance study)

C[C@@H]1CCO[C@H]2Cn3cc(C(=O)NCc4ccc(F)cc4F)c(=O)c(O)c3C(=O)N12 [DTG, Dolutegravir]
DRI Value ED75 (HIV-1IIIB [1]; combination ACC017 + DTG): 1.40
DRI Value ED90 (HIV-1IIIB [1]; combination ACC017 + DTG): 1.40
DRI Value ED95 (HIV-1IIIB [1]; combination ACC017 + DTG): 1.60
DRI Value ED75 (HIV-1IIIB [1]; combination DTG + 3TC): 3.00
DRI Value ED90 (HIV-1IIIB [1]; combination DTG + 3TC): 4.01
DRI Value ED95 (HIV-1IIIB [1]; combination DTG + 3TC): 4.98
DRI Value ED75 (HIV-1IIIB [1]; combination DTG + ACC007): 3.00
DRI Value ED90 (HIV-1IIIB [1]; combination DTG + ACC007): 4.13
DRI Value ED95 (HIV-1IIIB [1]; combination DTG + ACC007): 5.21
DRI Value ED75 (HIV-1IIIB [1]; combination DTG + FTC + TAF): 3.25
DRI Value ED90 (HIV-1IIIB [1]; combination DTG + FTC + TAF): 4.37
DRI Value ED95 (HIV-1IIIB [1]; combination DTG + FTC + TAF): 5.41
EC50 (HIV-1KIZ011 (CRF07_BC)): 0.28 ± 0.03 nM
EC50 (NL4-3): 2.41 ± 0.43 nM
CC50 at 3 d [2]: 24910 ± 10 nM
EC50 (NL4-3IN-R263K): 32.2 ± 3.74 nM
EC50 (HIV-1WAN (CRF01_AE)): 8.23 ± 0.2 nM
EC50 (HIV-1_4755-5): 9.96 ± 2.78 nM
EC50 (HIV-1DRACC017): > 5000 nM
EC50 [3]: 1.95 ± 0.12 nM
CC50 at 7 d [4]: 14600 nM
EC50 (HIV-1A17): 4.78 ± 5.13 nM
CC50 at 3 d [5]: 20340 ± 70 nM
EC50 (HIV-1TC-1 (CRF01_AE)): 0.31 ± 0.18 nM
EC50 (HIV-1IIIB [6]; C8166, p24 (Table 1)): 0.64 ± 0.07 nM
EC50 (HIV-1IIIB [6]; C8166, p24, 20% human serum): 33.6 ± 5.9 nM
EC50 (HIV-1IIIB [6]; [10]): 1.18 ± 0.15 nM
EC50 (HIV-1IIIB [7]): 0.73 ± 0.02 nM
EC50 (HIV-1IIIB [8]): 0.05144 ± 0.00014 nM
Late-RT level versus positive control (PC) group (HIV-1IIIB [9]): no significant difference compared with the PC group
2-LTR level (nuclear entry) (HIV-1IIIB [9]): unable to block the nuclear entry process
Alu-LTR level (integrated provirus) (HIV-1IIIB [9]): significantly reduced

O=C1Nc2ccc(Cl)cc2[C@@](C#CC2CC2)(C(F)(F)F)O1 [EFV, Efavirenz]
EC50 (NL4-3): 1.51 ± 0.48 nM
EC50 (NL4-3IN-R263K; read-out: EC50): 1.62 ± 0.31 nM
EC50 (HIV-1DRACC017): 1.24 ± 0.22 nM
FC (Fold Change) EC50 (HIV-1DRACC017)/EC50 (HIV-1IIIB) (HIV-1DRACC017; p24): 2.07
EC50 (HIV-1IIIB [6]; [10]): 0.6 ± 0.18 nM
Late-RT level versus positive control (PC) group (HIV-1IIIB [9]): significantly lower than that in the PC group
2-LTR level (nuclear entry) (HIV-1IIIB [9]): barely detected
Alu-LTR level (integrated provirus) (HIV-1IIIB [9]): almost undetectable

Nc1nc(=O)n([C@@H]2CS[C@H](CO)O2)cc1F [FTC, Emtricitabine]
DRI Value ED75 (HIV-1IIIB [1]; combination ACC017 + FTC + TAF): 7.82
DRI Value ED90 (HIV-1IIIB [1]; combination ACC017 + FTC + TAF): 12.57
DRI Value ED95 (HIV-1IIIB [1]; combination ACC017 + FTC + TAF): 17.41
DRI Value ED75 (HIV-1IIIB [1]; combination DTG + FTC + TAF): 7.15
DRI Value ED90 (HIV-1IIIB [1]; combination DTG + FTC + TAF): 12.20
DRI Value ED95 (HIV-1IIIB [1]; combination DTG + FTC + TAF): 17.77

CC(C)OC(=O)[C@H](C)N[P@](=O)(CO[C@H](C)Cn1cnc2c(N)ncnc21)Oc1ccccc1 [TAF, Tenofovir alafenamide]
DRI Value ED75 (HIV-1IIIB [1]; combination ACC017 + FTC + TAF): 4.78
DRI Value ED90 (HIV-1IIIB [1]; combination ACC017 + FTC + TAF): 6.99
DRI Value ED95 (HIV-1IIIB [1]; combination ACC017 + FTC + TAF): 8.96
DRI Value ED75 (HIV-1IIIB [1]; combination DTG + FTC + TAF): 4.40
DRI Value ED90 (HIV-1IIIB [1]; combination DTG + FTC + TAF): 6.33
DRI Value ED95 (HIV-1IIIB [1]; combination DTG + FTC + TAF): 8.18
